Test results published in paper PMC10634346 (Cancer Research Communications, 2023).

Legend:
[1] = system: p-Ser2 RNA polymerase II in SU-DHL-10 tumors; experiment: Pharmacodynamics in SU-DHL-10 xenograft tumors, p-Ser2; assay type: in vivo, C.B-17 SCID mice
Method: The levels of p-Ser2, p-Ser5 and total RNA polymerase II, Myc, Mcl-1, cleaved PARP (cPARP), and cleaved Caspase 3 were assessed by Western blotting and quantified near-infrared detection and background corrected quantification of fluorescence intensity on an Odyssey Imaging System with IRDye secondary antibodies (LI-COR Biosciences). For quantification, the protein levels were normalized to GAPDH or HSP90, expressed as a ratio to DMSO or vehicle control at matched timepoints. The normalized relative protein levels of p-Ser2 were used for a treatment effect comparison by performing an ANOVA using PROC MIXED in SAS. The ANOVA model included treatment, timepoints and their interactions as fixed effects. The least square means (LSM), differences between the LSMs and associated P values were generated. The following primary antibodies were used: Rpb1 NTD (D8L4Y) rabbit antibody [Cell Signaling Technology (CST), #14958], anti-RNA polymerase II subunit B1 (phospho CTD Ser-2, clone 3E10) rat antibody (Merck, 04-1571-I), recombinant anti-c-MYC rabbit antibody (Y69; Abcam, #ab32072), MCL1 (D5V5L) rabbit antibody (CST, #39224), cleaved-PARP (Asp214) (E2T4K) mouse antibody (CST, #32563), HSP90 (C45G5) rabbit antibody (CST, #4877), and GAPDH mouse antibody (Zytomed Systems, #ZYT-RGM2-6C5). […]

SU-DHL-10 xenografts = experiment: SU-DHL-10 xenograft antitumor efficacy; assay type: in vivo, C.B-17 SCID mice
Method: (§1) A total of 10 × 10^6 SU-DHL-10 cells were inoculated subcutaneously into 6–8 weeks old female C.B-17 SCID mice (Iffa Credo, Brussels). The mice were randomized to treatment groups at a tumor volume of 63–104 mm^3 and treated (intravenously, once weekly) with 10 mg/kg enitociclib (60% PEG400, 10% ethanol, water), 15 mg/kg enitociclib (30% PEG400, 10% ethanol, water), or corresponding vehicle treatments. Mice were around 10–12 weeks of age at the start of study. All animal experiments were performed under the national animal welfare laws of Germany and approved by the local authorities.
Statistical analyses were performed using GraphPad Prism v9 (GraphPad Software). For tumor volumes in SU-DHL-10 xenograft model, statistics were performed using unpaired t test in comparison with the corresponding vehicle treatment. The obtained P values were adjusted for all analyses. Results were considered statistically significant when P < 0.05.

[2] = Fraction unbound (fu) used for patient unbound Cmax; assay type: in vitro ADME; details: human, plasma; patients
[3] = Fraction unbound in cell media; assay type: in vitro ADME
[4] = system: MYC mRNA in SU-DHL-10 tumors; experiment: Pharmacodynamics in SU-DHL-10 xenograft tumors, MYC mRNA qPCR; assay type: in vivo, C.B-17 SCID mice; details: single dose 10 and 15 mg/kg
Method: (§2) Total RNA was extracted from blood of patients and cell lines using RNeasy Plus Mini Kit (QIAGEN, #74136) and cDNA prepared with the Maxima First Strand cDNA Synthesis Kit for RT-PCR (Thermo Fisher Scientific, K1642) according to manufacturer's instructions. The integrity of purified total RNA was evaluated using an Agilent 2100 Bioanalyzer system and RNA 6000 Nano Kit (Agilent, #5067-1511). Differential gene expression analysis was performed (Fios Genomics) from RNA-seq data (Discovery Life Sciences). MYC and MCL1 mRNA levels were measured by qPCR in vitro and in vivo, using a Taqman qPCR system (Thermo Fisher Scientific), TaqMan Fast Universal PCR Master Mix (2X) no AmpErase (#4352042) and TaqMan probes for MYC (Hs00153408_m1) and MCL1 (Hs03043899_m1). RNA-seq data were analyzed using DESeq2 ([35]).
as §1

[5] = system: RNA polymerase II Ser2 phosphorylation (p-Ser2) in SU-DHL-4 cells; experiment: In vitro washout, p-Ser2 Western blot, SU-DHL-4; assay type: cell-based, human; details: 4-hour treatment then washout
Method: Evaluation of the pharmacodynamic extent and duration of CDK9 inhibition were performed in vitro using the human DLBCL cell lines SU-DHL-4 and SU-DHL-10, harboring MYC amplification and MYC overexpression with P57T mutation, respectively. Cells were seeded 18 hours prior to treatment for 4 hours with one of three CDK9 inhibitors, enitociclib (0.25 and1 µmol/L), atuveciclib (1 µmol/L) or KB-0742 (1 µmol/L), cells were washed, and incubation continued until 48 hours posttreatment. Samples were collected before treatment (−4), immediately after treatment (0), and at 1, 2, 4, 8, 12, 16, 24, and 48 hours after washout for RNA sequencing (RNA-seq), qPCR, and Western blotting analyses.
The levels of p-Ser2, p-Ser5 and total RNA polymerase II, Myc, Mcl-1, cleaved PARP (cPARP), and cleaved Caspase 3 were assessed by Western blotting and quantified near-infrared detection and background corrected quantification of fluorescence intensity on an Odyssey Imaging System with IRDye secondary antibodies (LI-COR Biosciences). For quantification, the protein levels were normalized to GAPDH or HSP90, expressed as a ratio to DMSO or vehicle control at matched timepoints. The normalized relative protein levels of p-Ser2 were used for a treatment effect comparison by performing an ANOVA using PROC MIXED in SAS. The ANOVA model included treatment, timepoints and their interactions as fixed effects. The least square means (LSM), differences between the LSMs and associated P values were generated. The following primary antibodies were used: Rpb1 NTD (D8L4Y) rabbit antibody [Cell Signaling Technology (CST), #14958], anti-RNA polymerase II subunit B1 (phospho CTD Ser-2, clone 3E10) rat antibody (Merck, 04-1571-I), recombinant anti-c-MYC rabbit antibody (Y69; Abcam, #ab32072), MCL1 (D5V5L) rabbit antibody (CST, #39224), cleaved-PARP (Asp214) (E2T4K) mouse antibody (CST, #32563), HSP90 (C45G5) rabbit antibody (CST, #4877), and GAPDH mouse antibody (Zytomed Systems, #ZYT-RGM2-6C5).

[6] = system: MCL1 mRNA in SU-DHL-10 tumors; experiment: Pharmacodynamics in SU-DHL-10 xenograft tumors, MCL1 mRNA qPCR; assay type: in vivo, C.B-17 SCID mice; details: single dose; depletion sustained for 8 hours postdose at the two higher dose levels
Method: as §2, §1

COc1cc(F)ccc1-c1cc(Nc2cc(CS(C)(=N)=O)ccn2)ncc1F (centres unmarked) [enitociclib]
decrease of p-Ser2 levels in tumors ([1]; single dose 5 mg/kg, for 8 hours): greater than 50%
p-Ser2 in tumors (in words) ([1]; single dose 10 and 15 mg/kg, 8 hours postdose timeframe): depletion of p-Ser2
antitumor efficacy (in words) (SU-DHL-10 xenografts; 10 mg/kg i.v. once weekly): tumor growth control
treatment/control (T/C) value (SU-DHL-10 xenografts; 10 mg/kg i.v. once weekly, day 16 after treatment start, P = 0.011): 0.19
antitumor efficacy (in words) (SU-DHL-10 xenografts; 15 mg/kg i.v. once weekly, 3-week treatment period): complete regression
treatment/control (T/C) value (SU-DHL-10 xenografts; 15 mg/kg i.v. once weekly, day 20 after treatment start, P < 0.001): 0.005
tumor growth inhibition reaching, of control (SU-DHL-10 xenografts; SU-DHL-10 xenografts): 0.5 % of control
fraction unbound [2]: 0.0665
fraction unbound [3]: 0.666
MYC mRNA in tumors (in words) [4]: depleted by 4 hours postdose
decrease of p-Ser2 levels ([5]; 0.25 µmol/L): 50%
duration of p-Ser2 decrease ([5]; 0.25 µmol/L): up to 48 hours
duration of p-Ser2 decrease ([5]; 1 µmol/L): 48 h
MCL1 mRNA levels in tumors (in words) [6]: reduced by 4 hours postdose
